# Where two headings read alike, the source gives them in different places.
# Columns and labels:
# Skelotonema Costatum [1] = conditions: in vivo
# [2] = Biodegradability, OECD 306 test; conditions: OECD 306, 28 days
# Skelotonema Costatum [3] = assay: Ecotoxicology, Protocol ISO 10253; conditions: for EC50: 72 hrs
Molecule,72 h EC90 (Skelotonema Costatum [1]) [µg/mL],NOEC@72 h (Skelotonema Costatum [1]) [mg/L],LC5@10 days (Corophium Volulator; 10 days) [mg/kg],NOEC @ 10 days (Corophium Volulator; in vivo) [mg/kg],Degradation (biodegradability) [2] [%],EC50 (Skelotonema Costatum [3]) [µg/mL],48 h NOEC (Artica Tonsa; 48 h) [mg/L],"48 h LC90 (Artica Tonsa; 48 h, first figure of LC90/100) [µg/mL]","48 h LC100 (Artica Tonsa; 48 h, second figure of LC90/100) [mg/L]",LC50 (Artica Tonsa; 48 hrs) [µg/mL],NOEC @ 10 days (Corophium Volulator; 10 days) [mg/kg],72 h EC90 (Skelotonema Costatum [3]; 72 h) [µg/mL],NOEC@72 h (Skelotonema Costatum [3]; 72 h) [mg/L]
"CCCCCCCC/C=C\CCCCCCCCN1CC(C(=O)O)CC1=O.NCCO (centres unmarked) [OleylPyCOO-MEA, N-oleyl(pyrrolidine-2-one)-4-carboxylic acid/ethanol amine salt]",0.58,0.32,433,160,69,0.44,0.30,4.2,9.0,2.8,,,
N-oleyl(pyrroildine-2-one)-4-carboxylic acid/morpholine distillation residue salt [OleylPyCOO-AmixM],,,,,,1.6,,,,,524,3.0,0.56
